Data published in patent US20240358734A1, “DISCOVERY OF NOVEL TRPV1 CHANNEL BLOCKERS BY HIGH-THROUGHPUT SCREENING OF MARINE NATURAL PRODUCTS” (The Hong Kong University of Science and Technology, priority 2023, published 2024).
pIC50: −log10 of the molar value. Entries after “also recorded” stand apart in the source; their conditions may differ.

What was measured:
[1] = test system: capsaicin-/TRPV1-induced pain sensation; assay: Capsaicin-induced pain-sensation assay (paw-licking) in mice; format: in vivo, mice (C57B/6J); conditions: for mean licking time: drug mixed with capsaicin injected into right hind paw, 5 minutes observation
Experimental: The total time spent paw-licking, a typical nociception behaviour in mice, was recorded as an indicator of TRPV1 activation and compared with a positive control group injected with capsaicin alone. The potency of the injected drugs is related to the reduction of licking time.
The mice used were 4-6 weeks old C57B/6J provided by APCF in HKUST. All animal procedures were approved by the University Committee on Research Practices of the Hong Kong University of Science and Technology (Ethics protocol number: 2016074).
Capsaicin-induced pain-sensation assays in mice were performed where 10 μL of capsaicin (300 μM) or solvent control was injected into the top of the hind paw by using a fine (30-G) needle; capsaicin was dissolved in 0.3% ethanol and 3% (v/v) dimethyl sulfoxide (DMSO). The mice were wrapped gently in the investigator's hand and maintained on their back, with their snout pointing toward the small finger of the investigator; in this position, the mice remained unagitated during the injection. Mouse behavior was recorded using a digital camera (GoPro5).
The observation cage was made with the transparent large cage liner from APCF with bedding and food at the bottom. Mice were placed in the observation cage for 10 minutes at least 1 hour before the experiment was conducted to reduce the stress bought on by an unfamiliar environment. During the experiment, mice were captured by the left hand using the index finger and thumb to hold their neck. Then gradually pick up the mice and use the little finger to anchor its tail, such that its right hind paw will step on the ring finger or middle finger. Drugs were prepared in a 1.5 mL test tube. For the control group, 1 mM stock Capsaicin in DMSO is diluted to 100 μM using PBS. For the testing group, drugs originally dissolved in DMSO were diluted to the desired concentration in addition to capsaicin.
The injection was performed by shaking and spinning the drug-containing test tube for an even concentration of drug. A BD Ultra-fine 6 mm needle was used to suck out the 10 μL of drug from the needle. After removing excess air bubbles, 10 μL of the drug was injected into the captured mice's back of the right hind paw. The needle was removed slowly to inhibit blood and drug from leaking from the wound. After injection, mice were placed in the observation cage for 5 minutes to record the pain behavior. Video was filmed using a camera with the configuration of HD 30 fps. The environmental noise, light, and temperature are constant throughout the record. The mice's behavior was identified by experienced individuals who mapped pain behavior in seconds throughout the 5 minutes.

TRPV1 channel (hTRPV1) = molecular target: T1, TRPV1 channel (hTRPV1) (Homo sapiens, UniProt Q8NER1); assay: Excised inside-out patch-clamp of 3T3 cells transfected with hTRPV1-IRES-EGFP; format: cell-based; conditions: for inhibition of TRPV1 channels in patch-clamp macroscopic current: 10 nM capsaicin activation followed by 20 μM drug
T1 construct: expressed in transfected cells; host or cells: 3T3 cells
T1 sequence (Q8NER1 whole entry): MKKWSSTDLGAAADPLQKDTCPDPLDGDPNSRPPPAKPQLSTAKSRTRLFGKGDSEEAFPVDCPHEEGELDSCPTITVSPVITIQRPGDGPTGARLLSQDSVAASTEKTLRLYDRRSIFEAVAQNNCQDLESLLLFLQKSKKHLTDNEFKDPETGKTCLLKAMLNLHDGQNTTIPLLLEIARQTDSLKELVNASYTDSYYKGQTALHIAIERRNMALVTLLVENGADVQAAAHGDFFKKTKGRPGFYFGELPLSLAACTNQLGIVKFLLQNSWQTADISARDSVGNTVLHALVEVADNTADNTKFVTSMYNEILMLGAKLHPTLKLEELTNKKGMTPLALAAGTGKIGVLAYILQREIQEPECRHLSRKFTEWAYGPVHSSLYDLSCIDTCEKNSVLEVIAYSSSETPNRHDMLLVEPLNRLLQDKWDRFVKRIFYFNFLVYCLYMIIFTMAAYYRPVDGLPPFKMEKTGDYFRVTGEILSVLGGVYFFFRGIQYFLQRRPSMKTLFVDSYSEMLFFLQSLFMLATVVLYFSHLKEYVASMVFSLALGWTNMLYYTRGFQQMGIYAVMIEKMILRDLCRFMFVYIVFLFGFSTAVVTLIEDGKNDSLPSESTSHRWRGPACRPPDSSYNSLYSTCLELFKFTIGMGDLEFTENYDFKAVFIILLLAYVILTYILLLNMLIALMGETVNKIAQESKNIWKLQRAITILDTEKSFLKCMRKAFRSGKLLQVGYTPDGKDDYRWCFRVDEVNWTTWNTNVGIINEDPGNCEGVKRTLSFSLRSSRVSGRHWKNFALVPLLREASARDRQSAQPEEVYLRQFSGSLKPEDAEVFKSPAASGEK
Source text: A cell-based high-throughput drug screening method identifies potential TRPV1 inhibitors using the FM4-64 dye-uptake assay though the assay cannot conclusively distinguish the specific mechanism of blockage as numerous factors, such as other channels, pinocytosis, and drug-induced membrane potential alteration via pore-forming, can contribute to changes in FM4-64 dye uptake. A high-resolution patch clamp assays using an excised inside-out recording configuration allows investigation of the potential inhibitory effect of cC and cF on TRPV1, where changes in the patch-clamp macroscopic current before and after drug application indicates drug effectiveness.
3T3 cells were recorded using excised inside-out voltage clamp. Patch electrodes with a resistance of 4 MΩ±1.1 MΩ were pulled on a glass pipette puller (DMZ Zeitz-Puller). 3T3 cells were first transferred to a patch container to minimize the use of drugs and transfected with hTRPV1-IRES-EGFP. Immediately before assay, the cell medium was changed to PBS as well as the pipette medium. The dish was connected to the ground electrode via the salt bridge. Glass pipette filled with PBS was inserted into the patch electrode. A positive pressure of around 40 mmHg was applied to the pipette and soaked into the cell medium. The offset was tuned to near 0 pA when the holding potential was 0 mV. Pipette was moved to the cell, showing green-fluorescent and barely attached to the cell membrane. Then, removing the positive pressure in the pipette and changing the holding potential to −80 mV, forming a tight seal between the cell membrane and the pipette. The seal resistance should be >=1GQ. The sealed membrane was excised to form a patch in an inside-out configuration. The recording started with a positive holding potential.
The patch was activated by 10 nM of capsaicin to activate TRPV1 channels fully. After full activation, 20 μM of drugs (cC) was applied to test for their ability of TRPV1 inhibition. […]
Traces were collected with the pClamp10 software suite, and the patch-clamp macroscopic current was recorded. […]

human TRPV1 = molecular target: T2, human TRPV1 (Homo sapiens, UniProt Q8NER1); assay: High-throughput FM4-64 dye-uptake assay in HEK293 cells transfected with hTRPV1-pIRES-eGFP; format: cell-based; conditions: for pIC50: 1 μM capsaicin, 5 μM FM4-64, 3-minute incubation, cell-based system; for mean n2/n1 ratio: HEK293 cells transfected with human TRPV1, 96-well plate, groups incubated with drug, compared to capsaicin alone; for inhibitory effect on TRPV1 (relative n2/n1 ratio compared to vehicle control): screening, 5 μM FM4-64 dye and 100 μg/ml test compounds for 3 minutes, vs DMSO
T2 construct: expressed in transfected cells; host or cells: HEK293 (HEK293T) cells
T2 sequence (Q8NER1 whole entry): as above
Experimental: To screen potential modulators of TRPV1, a high-throughput screening system based on FM4-64 dye uptake was established using HEK293 cells transfected with hTRPV1-pIRES-eGFP and cultured in 96-well plates. The cells are incubation with 5 μM FM4-64 dye and 100 μg/ml test compounds for 3 minutes, washed, imaged using Zeiss Celldiscoverer 7, and analyzed using Image J (FIG. 2A). The number of GFP positive cells which is an indicator of the number of TRPV1 expressed cells, is calculated as n1 and the number of cells which are both GFP positive and dye uptake positive is calculated as n2 (FIG. 2B). The ratio (n2/n1) is a functional indicator of TRPV1 channel activity.
The performance of cC and cF with capsaicin and capsazepine, with HEK293 cells transfected with human TRPV1 and cultured on a 96-well plate are compared by the n2/n1 ratio of the groups incubated with cC and cF to those incubated with capsaicin alone and capsazepine (FIG. 3B).
The assay involves mixing 1 μM of capsaicin with varying concentrations of cC and 5 μM of FM4-64, and the mixture is added to each well for a 3-minute incubation.
Transfected HEK293 cells in a 96-well plate were divided into 8 groups, each containing 12 wells. 10-11 wells of each group were set as experimental groups in which cells were incubated with compound mixtures. 1-2 wells of each group were set as control groups in which cells were incubated with control solution A or B. One group was operated simultaneously to reduce the difference between wells. Cells in DMEM were washed with CaCl2-HBSS buffer once to remove the remnant medium. Subsequently, cells were incubated with the compound mixture or control solution for 2-3 min at RT. After FM4-64 incubation, cells were washed with CaCl2-HBSS buffer thrice to remove FM4-64 residuals. A group of cells was subjected to Zeiss Celldiscoverer 7 for fluorescent imaging.
To separate GFP and FM4-64 fluorescent dye, we used an LED light source at 470 nm to excite the GFP channel and light at 567 nm to excite the FM4-64 channel. 5× objective (Plan Apo, dry, autocorrect, NA 0.35), Orca camera (Orca Flash 4.0 v3), CO2 Module S1 incubation system, and Zenblue software were used for image recording. Each image comprises a GFP channel, FM4-64 channel, and bright field channel. And 4 non-overlapping images were taken for each well using the Tile function at Zenblue.
All images were analysed with ImageJ software. The same threshold would be applied to all the images in the same experiment group to select GFP-positive and dye uptake-positive cells. Cell number was calculated by the “Analyze particle” function in ImageJ. GFP-positive and dye uptake-positive cells were selected using the “AND” function in the image calculator. The number of GFP-positive cells (TRPV1 expressed cells) would be calculated as N1, and the number of cells that are both GFP positive and dye uptake positive would be calculated as N2. The ratio of […] represents the percentage of TRPV1 expressed cells that uptake FM4-64 fluorescent dye and would be used to analyse TRPV1's function.

Molecule | mean licking time [1] | inhibition of TRPV1 channels in patch-clamp macroscopic current (TRPV1 channel (hTRPV1)) | pIC50 (human TRPV1) | mean n2/n1 ratio (human TRPV1) | inhibitory effect on TRPV1 (relative n2/n1 ratio compared to vehicle control) (human TRPV1) | also measured
chrexanthomycin C [cC] | 19 s | effectively inhibit TRPV1 channels | 6.00 to 6.12 | 0.0307 | inhibitory effects on TRPV1; also recorded: lowest relative n2/n1 ratio | efficacy in blocking capsaicin-induced pain sensation relative to capsazepine ([1]; mouse model, ANOVA with post hoc test): as effective as capsazepine; average relative macroscopic current after drug addition (TRPV1 channel (hTRPV1); fully capsaicin-activated state (10 nM capsaicin), 20 μM drug, inside-out patch): 0.285
COc1cc(CNC(=O)CCCC/C=C/C(C)C)ccc1O [capsaicin, reference compound] |  |  |  |  |  | mean licking time, capsaicin alone group ([1]; capsaicin alone injected into right hind paw (positive control)): over 50 seconds; mean n2/n1 ratio, capsaicin group (human TRPV1; capsaicin alone, HEK293 cells transfected with human TRPV1): 0.254
CC(=O)Cc1cc2c(c(O)c1C(=O)O)-c1c(c(O)c3oc4c(O[C@@H]5OC(C(=O)O)=C[C@H](O)[C@H]5O)cccc4c(=O)c3c1O)CC2 [cA, chrexanthomycin A] |  |  |  |  | inhibitory effects on TRPV1 | 
COc1c2c(c(O)c3c(=O)c4cccc(O[C@@H]5OC(C(=O)O)=C[C@H](O)[C@H]5O)c4oc13)-c1c(cc(CC(C)=O)c(C(=O)O)c1O)CC2 [cB, chrexanthomycin B] |  |  |  |  | inhibitory effects on TRPV1 | 
Oc1cc2c(cc1O)CN(C(=S)NCCc1ccc(Cl)cc1)CCC2 [capsazepine, reference compound] | 18 s |  |  | 0.0667 |  | 
C[C@@]1(O)Cc2cc3c(c(O)c2C(=O)O1)-c1c(c(O)c(O)c2c(=O)c4cccc(O[C@@H]5OC(C(=O)O)=C[C@H](O)[C@H]5O)c4oc12)CC3 [cF, chrexanthomycin F] |  | effectively inhibit TRPV1 channels | < 5.70 | 0.068 | inhibitory effects on TRPV1 | 
